The term LD50 denotes the dose expected to kill half of the subjects tested. Low readings indicate a more toxic substance, high ones a less toxic substance.

This note sets out measurements from US4337266A, “Cytostatic terminally bifunctional sugar alcohols process for preparing them and pharmaceutical compositions containing them” (priority 1979, dated 1982).

One series concerns S-180 subcutan sarcoma. The series can be described thus: Activity against S-180 subcutan sarcoma. Format: in vivo. To be noted: 8 × 50 mg/kg/ip. From the text:
|Activity against S-180 subcutan sarcoma

Series [1] concerns Walker intramuscular carcinosarcoma. The series can be described thus: Activity against Walker intramuscular carcinosarcoma. It counts as in vivo. From the text: Activity against Walker intramuscular carcinosarcoma
The nature of series [2]: Toxicity tests, LD50 on mice after intraperitoneal administration. The following applies: mouse, in vivo, ip. From the text:
LD50 values on mice after intraperitoneal administ-

Take `CO[C@H]([C@H](OC)[C@@H]1CO1)[C@H]1CO1` [DMDAD, 1,2-5,6-dianhydro-3,4-dimethyl dulcitol]: the Antitumour activity was 80% with S-180 subcutan sarcoma, 55% in series [1] (1 × 50 mg/kg/ip) and 80% in series [1] (1 × 100 mg/kg/ip). In series [2], this molecule gave an LD50 of 680 mg/kg.
Turning to `CO[C@H]([C@H](OC)[C@@H](O)CBr)[C@H](O)CBr` [DMDBD, 1,6-dibromo-1,6-dideoxy-3,4-dimethyl dulcitol], the Antitumour activity stood at 90% in the series on S-180 subcutan sarcoma, 80% in series [1] (1 × 50 mg/kg/ip) and 99% in series [1] (1 × 100 mg/kg/ip). The LD50 in series [2] was 700 mg/kg.
On to `CO[C@H]([C@@H]1CO1)[C@H]1CO1` [MMDAX, 1,2-4,5-dianhydro-3-methyl-xylitol], for which the Antitumour activity with S-180 subcutan sarcoma is listed as 75%; in series [1] (1 × 100 mg/kg/ip), 90%. The same molecule registered an LD50 in series [2] of 500 mg/kg.
